Results as given in patent US20170112564A1, “METHODS AND MATERIALS FOR TREATING HYPERTENSION” (Mayo Foundation for Medical Education and Research, priority 2014, published 2017).

What was measured:
[1] = test system: young and older postmenopausal women; experiment: Ganglionic (autonomic) blockade with trimethaphan camsylate in young and older postmenopausal women: blood pressure and muscle sympathetic nerve activity; type: in vivo, humans; details: during trimethaphan
Text: FIG. 1 is a graph plotting muscle sympathetic nerve activity (MSNA; bursts/min) as measured using a microneurography technique for 24 humans. The dose indicates the amount of trimethaphan in mg/min it took to abolish the sympathetic nerve bursts. The MSNA bursts per minute is the amount of sympathetic bursts that occurred at baseline, prior to drug infusion.
FIG. 2 is a graph plotting the same dose of trimethaphan in mg/min compared to the difference in mean arterial pressure (MAP) between baseline and at the final trimethaphan dose.
The effect of ganglionic blockade on arterial blood pressure and how this relates to baseline muscle sympathetic nerve activity in 12 young (25±1 years) and 12 older postmenopausal (61±2 years) women were examined. The women were studied before and during autonomic blockade using trimethaphan camsylate. At baseline, muscle sympathetic nerve activity burst frequency and burst incidence were higher in the older women (33±3 versus 15±1 bursts/min; 57±5 versus 25±2 bursts/100 heartbeats, respectively; P<0.05). Muscle sympathetic nerve activity bursts were abolished by trimethaphan within minutes (e.g., between about 6 and about 35 minutes). […] Baseline muscle sympathetic nerve activity was associated with the decrease in mean arterial pressure during trimethaphan (r=−0.74; P<0.05). See, also, Barnes et al., Hypertension, 63:303-308 (2014).

[2] = test system: healthy humans; experiment: Brief escalating doses of trimethaphan camsylate with beat-to-beat arterial pressure to distinguish high and low sympathetic activity individuals; type: in vivo; details: 24 healthy humans, infusion 1-4 mg/minute for 5-10 minutes
Protocol: Both normal human subjects and patients with diseases such as resistant hypertension can have very wide ranges of baseline sympathetic activity. The following was developed to distinguish those individuals with high levels of baseline sympathetic activity from individuals with lower levels of baseline sympathetic activity. Trimethaphan camsylate, a ganglionic blocking drug, was administered (e.g., by infusion) at 1-4 mg/minute for 5-10 minutes to 24 healthy humans, while non-invasive beat-to-beat measurements of arterial pressure were made. […] The relationship between the fall in blood pressure and baseline sympathetic activity in a group of about 20-30 healthy women ranging in age from their early 20's to their later 60's was determined (FIGS. 1 and 2). Similar data were obtained using healthy men. […] Those individuals with an elevated level of sympathetic activity responsive to a ganglionic blocking drug (e.g., a reduction in the number of bursts per minute that is greater than 10 burst per minute) can be optimal candidates for sympatholytic therapy.

[3] = older postmenopausal women (61±2 years, n=12)

## O=C1N(Cc2ccccc2)C2C[S+]3CCCC3C2N1Cc1ccccc1 (stereo not drawn) [trimethaphan, trimethaphan camsylate]
[1]; 12 young and 12 older postmenopausal women
  Muscle sympathetic nerve activity bursts: abolished
[1]; [3]
  decrease in mean arterial pressure: −29±2 mm Hg
  decrease in total peripheral resistance: −10±1 mm Hg/L per minute
[1]; young women (25±1 years, n=12)
  decrease in mean arterial pressure: −9±2 mm Hg
  decrease in total peripheral resistance: −5±1 mm Hg/L per minute
[2]
  fall in blood pressure: directly related to baseline sympathetic activity
